Measurements: article PMC7482066, “Unstable Mechanisms of Resistance to Inhibitors of Escherichia coli Lipoprotein Signal Peptidase” (mBio, 2020)
≈ marks a conversion by molar mass, not a printed value.

Legend:
[1] = tested on: A. baumannii 17978; assay: MIC; type: cell-based; conditions: A. baumannii ATCC 17978; in words
Procedure: (§1) MICs of compounds in each strain were determined in cation-adjusted Mueller-Hinton II (MHII) broth or MHII agar according to the Clinical and Laboratory Standards Institute protocol (CLSI 2006). To measure the effect of protein binding on activity, MIC assays were performed in the presence of 50% heat-inactivated human serum. The serum killing assay was performed as described previously ([43]). FOR assays and growth on plates containing G0790 were always performed on MHII agarose plates.

[2] = tested on: E. coli CFT073 imp4213; assay: MIC; type: cell-based; conditions: in words
Procedure: as §1

[3] = tested on: E. coli CFT073 Δlpp; assay: MIC; type: cell-based
Procedure: as §1

[4] = tested on: E. coli CFT073(pBADlspA); assay: MIC; type: cell-based; conditions: in words
Procedure: as §1

[5] = tested on: E. coli MG1655 ΔtolC; assay: MIC; type: cell-based; conditions: E. coli MG1655 WT vs MG1655 ΔtolC
Procedure: as §1

[6] = tested on: S. aureus USA300; assay: MIC; type: cell-based; conditions: in words
Procedure: as §1

[7] = tested on: G0790-resistant CFT073 Δlpp; assay: MIC against G0790-resistant CFT073 Δlpp strains; type: cell-based, E. coli; conditions: non-lspA_GA
Procedure: as §1
Frequencies of resistance (FORs) of G0790 were determined for E. coli CFT073, E. cloacae (ATCC 13047), and K. pneumoniae (ATCC 700603) as previously published ([70]). To determine the FOR, 3 to 4 colonies of the strain to be tested were picked from a fresh plate and diluted to an optical density at 600 nm (OD600) of 0.00001 in 1 ml of cation-adjusted MHBII. Ten independent 5-ml cultures in MHBII were prepared by inoculating 5 μl (approximately 1 × 10^3 CFU) and incubated at 37°C for 18 h. […] In parallel, CFU from each independent culture was measured by spotting 10-fold serial dilutions on MHII agar plates and incubated at 37°C for 18 h. Colonies were counted at days 1, 2, and 3 postinoculation. FOR was calculated as the ratio of the total number of resistant colonies relative to the total CFU plated. […]

[8] = tested on: Lpp; assay: Lpp localization in peptidoglycan-associated and membrane fractions, Western blot; type: cell-based, E. coli; conditions: CFT073, 2× MIC G0790
Procedure: Purification of peptidoglycan-associated proteins (PAPs) was performed according to published methods ([43], [67], [68]) with some modifications. Briefly, bacteria were harvested in mid-exponential phase for treatment and then subjected to PAP extraction by resuspending cell pellets from an optical density (OD; A600) of 10 in 6 ml of PAP extraction buffer containing 2% (wt/vol) SDS in 100 mM Tris-HCl (pH 8.0) with 100 mM NaCl, 10% glycerol, and cOmplete mini EDTA-free protease inhibitor cocktail (Sigma-Aldrich). After 60 min at room temperature (RT), the extraction was subjected to centrifugation at 100,000 × g for 60 min at 22°C, and the pellet, containing peptidoglycan-associated proteins, was washed once with the same PAP extraction buffer with centrifugation at 100,000 × g for 30 min and resuspended in 200 μl of PAP extraction buffer (referred to as the SDS-insoluble or PAP fraction). The supernatant containing the SDS-soluble fraction was aliquoted and frozen (referred to as the non-PAP fraction). Both fractions were treated with equal volumes of BugBuster buffer prior to the addition of sample buffer for Western immunoblotting as described above.
The inner and outer membrane fractionations of bacterial cells were performed according to published methods ([69]), with some modifications. […]

Structure (SMILES): CCCCCC[C@H]1OC(=O)CNC(=O)[C@H]([C@H](C)O)NC(=O)[C@H](CN)NC(=O)[C@H](C2CCCCC2)NC(=O)[C@H](CCC)N(C)C(=O)[C@@H]1C [G0790]
- MIC against A. baumannii compared to GBM [1]: modestly decreased MIC
- Activity against CFT073 imp4213 relative to GBM [2]: more active than GBM
- MIC ([3]; CFT073 Δlpp parent, resistant-strain study): 19.5 µg/mL (≈ 29.2 µM)
- Susceptibility of CFT073 Δlpp relative to parental WT ([3]; in words): more resistant to G0790 than the parental WT strain
- Effect of LspA overexpression or lpp deletion on inhibition of WT CFT073 and CFT073 imp4213 [4]: decreased upon LspA overexpression or lpp deletion
- WT/tolC MIC shift [5]: ~31 fold
- Activity against S. aureus USA300 [6]: no increased activity
- MIC ([7]; CFT073 Δlpp 4×-R1, lspA_GA): 78 µg/mL (≈ 117 µM)
- MIC ([7]; CFT073 Δlpp 4×-R2, lspA_GA): 78 µg/mL (≈ 117 µM)
- Lpp localization after treatment [8]: loss of the peptidoglycan-associated form of Lpp in the outer membrane and its accumulation in the inner membrane
